Marks after values point to notes of the source that are not given here.
What was measured:
PPARγ = molecular target: T1, PPARγ (Homo sapiens, UniProt P37231); experiment: Commercial PPARγ binding assay (Invitrogen, PPAR-LBD/Fluormone PPAR Green complex); settings: for PPARγ binding signal (fluorescence polarization, Fluormone PPAR Green displacement): mean of three experiments
T1 construct: purchased Invitrogen Corporation, Carlsbad, Calif
T1 sequence (P37231 238-503 limits assumed): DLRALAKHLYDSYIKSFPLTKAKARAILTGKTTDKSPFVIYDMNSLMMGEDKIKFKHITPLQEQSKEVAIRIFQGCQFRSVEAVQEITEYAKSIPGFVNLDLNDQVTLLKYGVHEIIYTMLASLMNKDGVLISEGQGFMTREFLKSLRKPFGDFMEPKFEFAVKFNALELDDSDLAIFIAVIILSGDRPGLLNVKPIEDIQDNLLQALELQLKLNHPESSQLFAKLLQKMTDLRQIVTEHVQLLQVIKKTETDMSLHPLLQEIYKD
Description: The ability of several exemplary compounds of the present invention, shown in Table A, to bind to PPARγ was measured using a commercial binding assay (Invitrogen Corporation, Carlsbad, Calif.) that measures the test compounds ability to bind with PPAR-LBD/Fluormone PPAR Green complex. These assays were performed on three occasions with each assay using four separate wells (quadruplicate) at each concentration of tested compound. The data are mean and SEM of the values obtained from the three experiments. […] Compounds were added at the concentrations shown, which range from 0.1-100 micromolar.

Diabetic KKAy mice [1] = experiment: Glucose, insulin and triglyceride in diabetic KKAy mice, 4 days oral dosing; type: in vivo; settings: for Glucose / Insulin / Triglycerides: 93 mg/kg orally for 4 days, fasted, blood approx. 18 hours after last dose, mean and SEM, N=6-12
Description: The insulin sensitizing and antidiabetic pharmacology are measured in the KKA^Y mice as previously reported [Hofmann, C., Lomez, K., and Colca, J. R. (1991). Glucose transport deficiency corrected by treatment with the oral anti-hyperglycemic agent Pioglitazone. Endocrinology, 129:1915-1925.]. Compounds are formulated in 1% sodium carboxy methylcellulose, and 0.01% tween 20 and dosed daily by oral gavage.
Compounds were formulated by suspension and orally dosed to KKAy mice at 93 mg/kg for 4 days. The compounds were first dissolved in DMSO and then placed into aqueous suspension containing 7-10% DMSO, 1% sodium methylcarboxycellulose, and 0.01% Tween 20. On the fifth day, the mice were fasted and blood samples were obtained approximately 18 hours after the last dose. The parameters were measured by standard assay methods. Data are mean and SEM N=6-12 mice.

Diabetic KKAy mice [2] = experiment: Glucose and insulin in diabetic KKAy mice dosed 7 days with compound 1 or rosiglitazone; type: in vivo; settings: 20 mg rosiglitazone or 100 mg/kg compound 1, fasting, 8th day, mean, 8 mice/group
Description: (§1) KKAy mice were dosed for 7 days with 20 mg rosigltiazone (positive control) and 100 mg/kg of compound 1 in suspension (1% sodium methyl carboxymethyl cellulose/0.01% Tween 80). On the 8th day, fasting, glucose, and insulin were measured, see Table D. The liver was isolated was used to measure hepatic mRNA for aP2, a biomarker for PPARγ activation in vivo. […] Data are mean and (SEM) for 8 mice/group.

aP2 = experiment: Hepatic mRNA for aP2, biomarker for PPARγ activation in vivo, KKAy mice
Description: as §1

SMILES	PPARγ binding signal (fluorescence polarization, Fluormone PPAR Green displacement) (PPARγ; 1 μM compound)	PPARγ binding signal (fluorescence polarization, Fluormone PPAR Green displacement) (PPARγ; 3 μM compound)	PPARγ binding signal (fluorescence polarization, Fluormone PPAR Green displacement) (PPARγ; 10 μM compound)	PPARγ binding signal (fluorescence polarization, Fluormone PPAR Green displacement) (PPARγ; 50 μM compound)	PPARγ binding signal (fluorescence polarization, Fluormone PPAR Green displacement) (PPARγ; 100 μM compound)	PPARγ binding signal (fluorescence polarization, Fluormone PPAR Green displacement) (PPARγ; .1 μM compound)	PPARγ binding signal (fluorescence polarization, Fluormone PPAR Green displacement) (PPARγ; .3 μM compound)	Binding to PPARγ (in words) (PPARγ; referring to FIG. 1 and Table B)	Glucose (Diabetic KKAy mice [1])	Insulin (Diabetic KKAy mice [1])	Triglycerides (Diabetic KKAy mice [1])	Glucose (Diabetic KKAy mice [2]) [mg/dL]	Insulin (Diabetic KKAy mice [2]) [ng/mL]	aP2 (relative expression in liver) (aP2; KKAy mice dosed 7 days, 20 mg rosiglitazone or 100 mg/kg compound 1, hepatic mRNA, mean, 8 mice/group)	Activation of PPARγ in vivo as compared to the positive control (in words) (aP2; KKAy mice, hepatic aP2 mRNA, 100 mg/kg for 7 days)	Effectiveness at lowering glucose, insulin and triglyceride levels / antidiabetic activity (in words) (Diabetic KKAy mice [1]; Table C)
CCc1ccc(C(=O)COc2ccc(CC3SC(=O)NC3=O)cc2)nc1 (stereo not shown) [Compound 1]	223	228	207	174	170	227	232	particularly poor binders	402 +/− 25* mg/dl	7.6 +/− 1.9* ng/ml	115 +/− 18* mg/dl	291	1.9	5.7	little activation of PPARγ	–
CN(CCOc1ccc(CC2SC(=O)NC2=O)cc1)c1ccccn1 (stereo not shown) [Rosiglitazone, reference compound]	–	–	–	–	–	–	–	–	–	–	–	320	3.4	–	–	–
CCc1ccc([C@H](O)COc2ccc(CC3SC(=O)NC3=O)cc2)nc1 (stereo partly shown) [Compound 3]	203	185	134	88	77	226	221	–	388 +/− 38* mg/dl	7.2 +/− 1.9* ng/ml	148 +/− 23* mg/dl	–	–	–	–	equivalent antidiabetic activity

From patent US9155729B2, “Thiazolidinedione analogues” (Metabolic Solutions Development Company, LLC, priority 2006, dated 2015)
